Source: ChEMBL document CHEMBL1201862, “PubChem BioAssay data set” (2004)
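Compound exposure: 48 hours, 5 concentrations, 96-well plates. The concentration for 50% growth inhibition is given as GI50.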 Activity calls are given as the source filed them. Rule as the data show it: active = GI50 up to about 1.1 µM and inactive = higher.

Experiments:
Assay in all cases: NCI anticancer screen, dose series, 48 h
KM-20L2 = system: KM-20L2
RXF 631 = system: RXF 631
DMS-114 = system: DMS-114
LXFL 529 = system: LXFL 529
DLD-1 = system: DLD-1
XF498 = system: XF498
SNB-78 = system: SNB-78
DMS-273 = system: DMS-273
HOP-18 = system: HOP-18

Measured: GI50

CC1(C)C(=NN=C(N)N)C(C)(C)C1=NN=C(N)N
inactive: KM-20L2 > 100 µM | RXF 631 > 100 µM | DMS-114 > 100 µM | LXFL 529 > 100 µM | DLD-1 > 100 µM | XF498 > 100 µM | SNB-78 > 100 µM | DMS-273 > 100 µM

CN1C2C=C(c3ccccc3)CC1CC2 (configuration not stated)
inactive: KM-20L2 > 100 µM | LXFL 529 > 100 µM | DLD-1 > 100 µM | HOP-18 > 100 µM | XF498 > 100 µM

CC(=O)c1cccc(NCn2nnc3ccccc32)c1
inactive: KM-20L2 > 100 µM | DMS-114 > 100 µM | LXFL 529 > 100 µM | DLD-1 > 100 µM | HOP-18 > 100 µM | XF498 > 100 µM | DMS-273 > 100 µM

CNS(=O)(=O)NN(C)S(=O)(=O)c1ccc(OC)cc1
inactive: KM-20L2 > 100 µM | RXF 631 > 100 µM | DMS-114 > 100 µM | LXFL 529 > 100 µM | DLD-1 > 100 µM | XF498 > 100 µM | DMS-273 > 100 µM

O=C1N(c2ccccc2)C(=O)C2(SC=NN2Cc2ccccc2)N1c1ccccc1 (configuration not stated)
inactive: KM-20L2 > 100 µM | DMS-114 > 100 µM | LXFL 529 > 100 µM | DLD-1 > 100 µM | HOP-18 > 100 µM | XF498 > 100 µM | SNB-78 > 100 µM

O=C(O)CCNS(=O)(=O)c1ccc([N+](=O)[O-])cc1
inactive: KM-20L2 > 100 µM | RXF 631 > 100 µM | LXFL 529 > 100 µM | DLD-1 > 100 µM | HOP-18 > 100 µM | XF498 > 100 µM | DMS-273 > 100 µM

O=C(c1ccccc1)N1CCc2c([nH]c3ccccc23)C1
inactive: KM-20L2 54.1 µM | RXF 631 > 100 µM | DMS-114 20.4 µM | LXFL 529 36.4 µM | DLD-1 64.7 µM | HOP-18 52.6 µM | XF498 20.8 µM | DMS-273 30.7 µM

C=C(CN(C)C)C(=O)c1ccc(C(=O)C(=C)CN(C)C)cc1
inactive: KM-20L2 > 100 µM | LXFL 529 > 100 µM | DLD-1 > 100 µM | HOP-18 > 100 µM | XF498 > 100 µM

Cn1cnc([N+](=O)[O-])c1SC1=NCCS1
inactive: LXFL 529 27 µM | DLD-1 31.4 µM | HOP-18 4.24 µM | XF498 > 100 µM | SNB-78 42.9 µM | DMS-273 98.6 µM

C[C@@]12CCCC(=O)N1[C@@H](CO)C(c1ccccc1)O2 (some centres not stated)
inactive: KM-20L2 > 100 µM | DMS-114 > 100 µM | DLD-1 > 100 µM | HOP-18 > 100 µM | XF498 > 100 µM | SNB-78 > 100 µM | DMS-273 > 100 µM

CC1(C)O[C@@H](CCl)C[C@@H](C#N)O1
inactive: KM-20L2 > 100 µM | DMS-114 > 100 µM | DLD-1 > 100 µM | HOP-18 > 100 µM | SNB-78 > 100 µM | DMS-273 > 100 µM

CCO/C=C1\N=C(C(Cl)c2ccccc2)OC1=O (configuration not stated)
inactive: KM-20L2 > 100 µM | DMS-114 61.5 µM | LXFL 529 > 100 µM | DLD-1 > 100 µM | XF498 > 100 µM | SNB-78 > 100 µM | DMS-273 > 100 µM

COc1cc(/C=C2\NC(=O)C(Cc3cc(OC)c(OC)c(C)c3OC)N(C(C)=O)C2=O)c(OC)c(C)c1OC (configuration not stated)
inactive: KM-20L2 > 100 µM | DMS-114 60.5 µM | LXFL 529 72.8 µM | DLD-1 > 100 µM | HOP-18 28.6 µM | DMS-273 > 100 µM

Cc1cc(=O)c2c(O)cc3c(c2o1)CC=C(COC1OC(COC2OC(CO)C(O)C(O)C2O)C(O)C(O)C1O)CO3 (configuration not stated)
inactive: KM-20L2 > 100 µM | DMS-114 > 100 µM | LXFL 529 > 100 µM | DLD-1 > 100 µM | XF498 > 100 µM | SNB-78 > 100 µM | DMS-273 > 100 µM

N#Cc1cn(-c2c3ccccc3nc3ccccc23)c(=O)[nH]c1=O
inactive: KM-20L2 7.38 µM | DMS-114 8 µM | LXFL 529 9.04 µM | DLD-1 15.5 µM | XF498 11.6 µM | SNB-78 13.5 µM

COc1ccc2c3c1C(=O)CCC3CO2 (configuration not stated)
inactive: KM-20L2 > 100 µM | RXF 631 > 100 µM | DMS-114 > 100 µM | LXFL 529 > 100 µM | DLD-1 > 100 µM | XF498 > 100 µM | SNB-78 > 100 µM | DMS-273 > 100 µM

CC#C[P+](c1ccccc1)(c1ccccc1)c1ccccc1
inactive: KM-20L2 6.71 µM | DMS-114 2.08 µM | LXFL 529 1.32 µM | DLD-1 2.34 µM | HOP-18 11.7 µM | XF498 2.39 µM | SNB-78 4.33 µM | DMS-273 2.11 µM

CC1(C)OC(=S)N(c2ccccc2)C12C=Cc1cc3ccccc3nc1S2 (configuration not stated)
inactive: KM-20L2 > 100 µM | DMS-114 > 100 µM | LXFL 529 44 µM | DLD-1 40.6 µM | XF498 > 100 µM | DMS-273 97.3 µM

Cc1ccc(-c2nnc(-c3nn(-c4ccccc4)c4nc5ccccc5nc34)o2)cc1
inactive: KM-20L2 42.4 µM | DMS-114 15.8 µM | LXFL 529 10.6 µM | DLD-1 16.9 µM | HOP-18 27.9 µM | XF498 11.4 µM | SNB-78 19.8 µM | DMS-273 20.1 µM

Nc1ccc(C(=O)NN2C(=O)C(Cl)C2c2ccccc2Cl)cc1 (configuration not stated)
inactive: KM-20L2 15.8 µM | DMS-114 5.48 µM | LXFL 529 2.06 µM | DLD-1 10.8 µM | HOP-18 3.1 µM | XF498 17.5 µM | SNB-78 15.7 µM | DMS-273 3.2 µM
